How the values were obtained:
cGMP-PDE = settings: in vitro; cited from earlier work
[1] = tested on: skin irritation caused by Balsam of Peru; assay: Balsam of Peru skin irritation test on ventral forearms of panelists (skin redness, Minolta Chromameter); format: in vivo, human; settings: topical; for Percent Reduction in the onset of irritation: Example 2, before Balsam of Peru
Description: Eight female volunteer panelists between the ages of 21 and 55 having a history of skin sensitivity to Balsam of Peru are chosen for a study. […] The panelists have a history of skin reactivity to Balsam of Peru which manifests itself in the form of an immediate urticaria reaction. The test sites on the ventral forearms of the panelists are devoid of warts, nevi, moles, sunburn, suntan, scars and active dermal lesions. Pregnant or lactating volunteers are excluded. […] The composition is given time, about 20 minutes, to absorb into the skin on the forearm. Next, an irritant, Balsam of Peru, 8.00 percent in petrolatum, is applied to the test area of the skin and when redness appears within 30 to 40 minutes after application, Balsam of Peru is wiped off with a wet towel. Skin redness is measured with the Minolta Chromameter. Skin irritation is measured in terms of an increase in skin redness measured using a Minolta Chromameter and compared with a negative and a positive control. The positive control is the color of the skin treated solely with Balsam of Peru, and the negative control is the color of the skin treated with a cola […] solution in 10% hydroalcohol (1:1).

[2] = tested on: inflammatory parameters in atopic dermatitis; settings: in vivo; cited from earlier work
cAMP-PDE = settings: in vitro; cited from earlier work

Compound	Percent Reduction in the onset of irritation ([1]; 1% concentration) [%]	also measured
Nc1nc2c(ncn2[C@H]2C[C@@H]3OP(=O)(O)OC[C@H]3O2)c(=O)[nH]1 [2′-deoxy cGMP]		inhibition of cGMP-PDE (cGMP-PDE): specific and potent in vitro inhibitors
CC(=O)CCCCn1c(=O)c2c(ncn2C)n(C)c1=O [Pentoxifylline, pentoxifylline]	50	
COc1ccc(C2CNC(=O)NC2)cc1O[C@H]1C[C@@H]2CC[C@H]1C2 [CP80,633]		reduction of inflammatory parameters [2]: significant reduction of inflammatory parameters
COc1ccc(C2CNC(=O)C2)cc1OC1CCCC1 (centres unmarked) [Rolipram]	69	
O=c1[nH]cnc2c1ncn2[C@@H]1O[C@@H]2COP(=O)(O)O[C@H]2[C@H]1O [cIMP, cyclic IMP]	42	
CCCCOc1cc(CC2CNC(=O)N2)ccc1OC (centres unmarked) [Ro-12-1724]	57	
Nc1ncnc2c1ncn2C1CC2OP(=O)(O)OCC2O1 (centres unmarked) [2′-deoxy cAMP, 2′-deoxy adenosine 3 ′5′ cyclic monophosphate]		reduction in the onset of irritation ([1]; Example 1, 0.5 percent in magnesium buffer, applied about 20 minutes before 8.00 percent Balsam of Peru in petrolatum, eight female panelists): 74%; Percent Reduction in the onset of irritation ([1]; 0.5% concentration): 71%; inhibition of cAMP-PDE (cAMP-PDE): specific and potent in vitro inhibitors
CC(C)Cn1c(=O)n(C)c(=O)c2[nH]cnc21 [IBMX, 3-isobutyl 1-methyl xanthine]	66	
Cn1c(=O)c2c(ncn2C)n(C)c1=O [Caffeine, caffeine]	45	

— patent US6531140B2, “Anti-irritant compositions containing a cyclic nucleotide” (E-L Management, priority 1999, dated 2003)
